Data reported in US12459951B2, “Compounds that interact with RAS superfamily proteins for treatment of cancers, inflammatory diseases, rasopathies, and fibrotic disease” (SHY Therapeutics, LLC, priority 2022, dated 2025).

How the values were obtained:
Akt phosphorylation = assay: Akt Phosphorylation Assay (western blot), Panc-1; format: cell-based, human; settings: at 10 μM, * = activation
Method in brief: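 Panc-1 (KRas G12D) cells were treated with compound at 10 μM final (0.3% DMSO) for 6 h at 37 °C, or with serial dilutions for IC50. Cells were either serum-starved overnight in 0.5% FBS and then stimulated with 1.5 ng/ml EGF for 15 min, or kept in 10% FBS without stimulation. Akt Ser473 phosphorylation in lysates was read by western blot.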

KRas G12D mutant = assay: Ras GTP Binding Domain Inhibition Assay (Ras Superfamily Assay); settings: for KRas G12D mutant + SOS: % inh.: with SOS; for KRas G12D mutant: % inh.: without SOS
Method in brief: (§1)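 Ni-plate capture of His-tagged protein (10-30 μg/mL, o/n 4° C); cpd 20 μM or dilution series, 1% DMSO, 3 h RT ± Sos 556-1049 last h; 100 nM Cy-labelled GTP 45 min RT; 3× wash; fluorescence read.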

Rac-1 = molecular target: T1, Rac-1 (Homo sapiens, UniProt P63000); assay: as above; settings: read-out: Rac-1: % inh.
T1 construct: made in house
Method in brief: as §1

KRas wild type = assay: as above; settings: for KRas wild type + SOS: % inh.: with SOS; for KRas wild type: % inh.: without SOS
Method in brief: as §1

IL6 = assay: IL-6 Quantification Assay (ELISA), LPS-stimulated RAW 264.7; format: cell-based; parameters: inhibition: dose or concentration left out as unconfirmed; settings: Mus musculus, RAW264.7; read-out: IL-6: % inh.

Row | SMILES | % inh of Akt phosphorylation in Panc-1 (Akt phosphorylation) | KRas G12D mutant + SOS: % inh. (KRas G12D mutant; 20 μM compound) | KRas G12D mutant: % inh. (KRas G12D mutant; 20 μM compound) | inhibition at 20 µM (Rac-1) | KRas wild type + SOS: % inh. (KRas wild type; 20 μM compound) | KRas wild type: % inh. (KRas wild type; 20 μM compound) | inhibition (IL6) | KRas G12D mutant + SOS: % inh. (KRas G12D mutant; at 20 μM) | KRas G12D mutant: % inh. (KRas G12D mutant; at 20 μM) | KRas wild type + SOS: % inh. (KRas wild type; at 20 μM) | KRas wild type: % inh. (KRas wild type; at 20 μM)
1 | CCc1nc(Nc2nc(-c3nccn3C)nn3cc(-c4ccn(C(C)C)n4)c(C)c23)nn1C [Compound 76, N-(5-Ethyl-1-methyl-1H-1,2,4-triazol-3-yl)-6-(1-isopropyl-1H-pyrazol-3-yl)-5-methyl-2-(1-methyl-1H-imidazol-2-yl)pyrrolo[2,1-f][1,2,4]triazin-4-amine] | D* (85-100% activation) | 0 (0 = 0% inhibition) | C (C = 50-75% inhibition) | 50 to 75% | 0 (0 = 0% inhibition) | B (B = 26-49% inhibition) | 25 to 49% |  |  |  | 
2 | Cc1c(-c2ccn(C(C)C)n2)cn2nc(-c3nccn3C)nc(Nc3nnc(C4CC4)[nH]3)c12 [Compound 81, N-(5-Cyclopropyl-4H-1,2,4-triazol-3-yl)-6-(1-isopropyl-1H-pyrazol-3-yl)-5-methyl-2-(1-methyl-1H-imidazol-2-yl)pyrrolo[2,1-f][1,2,4]triazin-4-amine] | D* (85-100% activation) | C (C = 50-75% inhibition) | D (D = 76-100% inhibition) | 76 to 100% | B (B = 26-49% inhibition) | C (C = 50-75% inhibition) | 75 to 100% |  |  |  | 
3 | COC1CCCN(c2nc(-c3nccn3C)nn3cc(-c4ccn(C(C)C)n4)c(C)c23)C1 (racemic) [Compound 4, rac 6-(1-Isopropyl-1H-pyrazol-3-yl)-5-methyl-2-(1-methyl-1H-imidazol-2-yl)-4-(3-(oxo-γ6-methyl)piperidin-1-yl)pyrrolo[2,1-f][1,2,4]triazine] | 0 (0% inhibition) | 0 (0 = 0% inhibition) | A (A = 1-25% inhibition) | 1 to 25% | A (A = 1-25% inhibition) | A (A = 1-25% inhibition) | 75 to 100% |  |  |  | 
4 | COc1ncncc1Nc1nc(-c2nccn2C)nn2cc(-c3ccn(C(C)C)n3)c(C)c12 [Compound 88, 6-(1-Isopropyl-1H-pyrazol-3-yl)-N-(4-methoxypyrimidin-5-yl)-5-methyl-2-(1-methyl-1H-imidazol-2-yl)pyrrolo[2,1-f][1,2,4]triazin-4-amine] | D* (85-100% activation) | A (A = 1-25% inhibition) | A (A = 1-25% inhibition) | 1 to 25% | 0 (0 = 0% inhibition) | 0 (0 = 0% inhibition) | 1 to 24% |  |  |  | 
5 | COc1cccc(-c2cn3nc(-c4nccn4C)nc(N[C@@H]4CC[C@H](OC)C4)c3c2-c2ccccc2)c1C (racemic) [Compound 271, rac 6-(3-Methoxy-2-methylphenyl)-N-((1R,3S)-3-methoxycyclopentyl)-2-(1-methyl-1H-imidazol-2-yl)-5-phenylpyrrolo[2,1-f][1,2,4]triazin-4-amine] | D (85-100% inhibition) |  |  | 26 to 49% |  |  | 75 to 100% | B (B = 26-49% inhibition) | B (B = 26-49% inhibition) | A (A = 1-25% inhibition) | B (B = 26-49% inhibition)
6 | COc1cc(Nc2nc(-c3nccn3C)nn3cc(-c4ccn(C(C)C)n4)c(-c4ccccc4)c23)ncn1 [Compound 22, 6-(1-Isopropyl-1H-pyrazol-3-yl)-N-(6-methoxypyrimidin-4-yl)-2-(1-methyl-1H-imidazol-2-yl)-5-phenylpyrrolo[2,1-f][1,2,4]triazin-4-amine] | A* (1-25% activation) | B (B = 26-49% inhibition) | B (B = 26-49% inhibition) | 26 to 49% | A (A = 1-25% inhibition) | B (B = 26-49% inhibition) | 75 to 100% |  |  |  | 
7 | Cc1c(-c2ccn(C(C)C)n2)cn2nc(-c3nccn3C)nc(Nc3noc(C4CC4)n3)c12 [Compound 75, 5-Cyclopropyl-N-(6-(1-isopropyl-1H-pyrazol-3-yl)-5-methyl-2-(1-methyl-1H-imidazol-2-yl)pyrrolo[2,1-f][1,2,4]triazin-4-yl)-1,2,4-oxadiazol-3-amine] | A* (1-25% activation) | A (A = 1-25% inhibition) | B (B = 26-49% inhibition) | 26 to 49% | A (A = 1-25% inhibition) | A (A = 1-25% inhibition) | 1 to 24% |  |  |  | 
8 | COCCO[C@H]1C[C@H](Nc2nc(-c3nccn3C)nn3cc(-c4ccn(C(C)C)n4)c(C)c23)C1 [Compound 92, 6-(1-Isopropyl-1H-pyrazol-3-yl)-N-((1r,3r)-3-(2-methoxyethoxy)cyclobutyl)-5-methyl-2-(1-methyl-1H-imidazol-2-yl)pyrrolo[2,1-f][1,2,4]triazin-4-amine] | A* (1-25% activation) | A (A = 1-25% inhibition) | A (A = 1-25% inhibition) | 1 to 25% | 0 (0 = 0% inhibition) | 0 (0 = 0% inhibition) | 50 to 74% |  |  |  | 
9 | Cc1ccn2nc(-c3nccn3C)nc(N)c12.O=C(O)C(F)(F)F [Compound 37, 5-Methyl-2-(1-methyl-1H-imidazol-2-yl)pyrrolo[2,1-f][1,2,4]triazin-4-amine trifluoroacetic acid salt] | 0 (0% inhibition) | B (B = 26-49% inhibition) | B (B = 26-49% inhibition) | 0% | B (B = 26-49% inhibition) | B (B = 26-49% inhibition) | 0% |  |  |  | 
10 | Cc1c(-c2ccn(C(C)C)n2)cn2nc(-c3nccn3C)nc(Nc3ncc(C4CC4)o3)c12 [Compound 90, 5-Cyclopropyl-N-(6-(1-isopropyl-1H-pyrazol-3-yl)-5-methyl-2-(1-methyl-1H-imidazol-2-yl)pyrrolo[2,1-f][1,2,4]triazin-4-yl)oxazol-2-amine] | A* (1-25% activation) | A (A = 1-25% inhibition) | 0 (0 = 0% inhibition) | 76 to 100% | 0 (0 = 0% inhibition) | B (B = 26-49% inhibition) | 0% |  |  |  | 
